According to PubChem BioAssay AID248 (DTP/NCI, 2004):
Inconclusive results and toxic doses are left out. No stated cut-off is given here; in the data, active means T/C of 150% or more; inactive means T/C below 125%.

Test system: L1210 leukemia ip in BDF1 mice, survival T/C
Experiment: NCI In Vivo Anticancer Drug Screen. Data for tumor model L1210 Leukemia (intraperitoneal) in B6D2F1 (BDF1) mice
Settings: endpoint: mean survival time, higher = longer survival
Summary of the method: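 Each compound was tested against a transplantable tumor grown in mice. The endpoint was survival, with treated animals benchmarked against vehicle controls as a simple ratio.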

[1] = dose: 100.0 mg/kg/injection, schedule: Q04DX003 (ip), vehicle: saline
[2] = dose: 200.0 mg/kg/injection, schedule: Q04DX003 (ip), vehicle: saline
[3] = dose: 400.0 mg/kg/injection, schedule: Q04DX003 (ip), vehicle: saline
[4] = dose: 100.0 mg/kg/injection, schedule: Q01DX001 (ip), vehicle: carboxymethylcellulose (CMC)
[5] = dose: 100.0 mg/kg/injection, schedule: Q04DX003 (ip), vehicle: saline with Tween-80
[6] = dose: 200.0 mg/kg/injection, schedule: Q04DX003 (ip), vehicle: saline with Tween-80
[7] = dose: 400.0 mg/kg/injection, schedule: Q04DX003 (ip), vehicle: saline with Tween-80
[8] = dose: 100.0 mg/kg/injection, schedule: Q01DX009 (ip), vehicle: Klucel (hydroxypropylcellulose) (HPC)
[9] = dose: 100.0 mg/kg/injection, schedule: Q04DX003 (ip), vehicle: Klucel (hydroxypropylcellulose) (HPC)
[10] = dose: 200.0 mg/kg/injection, schedule: Q04DX003 (ip), vehicle: Klucel (hydroxypropylcellulose) (HPC)
[11] = dose: 400.0 mg/kg/injection, schedule: Q01DX009 (ip), vehicle: Klucel (hydroxypropylcellulose) (HPC)
[12] = dose: 400.0 mg/kg/injection, schedule: Q04DX003 (ip), vehicle: Klucel (hydroxypropylcellulose) (HPC)
[13] = dose: 100.0 mg/kg/injection, schedule: Q04DX002 (ip), vehicle: Klucel (hydroxypropylcellulose) (HPC)
[14] = dose: 100.0 mg/kg/injection, schedule: Q04DX003 (ip), vehicle: other
[15] = dose: 200.0 mg/kg/injection, schedule: Q04DX003 (ip), vehicle: other
[16] = dose: 400.0 mg/kg/injection, schedule: Q04DX003 (ip), vehicle: other
[17] = dose: 50.0 mg/kg/injection, schedule: Q01DX009 (ip), vehicle: Klucel (hydroxypropylcellulose) (HPC)
[18] = dose: 200.0 mg/kg/injection, schedule: Q01DX009 (ip), vehicle: Klucel (hydroxypropylcellulose) (HPC)
[19] = dose: 50.0 mg/kg/injection, schedule: Q04DX003 (ip), vehicle: saline with Tween-80

Measured: T/C

CCNC(C)(C)C(SSSC(c1ccc(C(F)(F)F)cc1)C(C)(C)NCC)c1ccc(C(F)(F)F)cc1 (stereo not drawn)
inactive: dose: 6.25 mg/kg/injection, schedule: Q01DX009 (ip), vehicle: saline 91 % of control | dose: 12.5 mg/kg/injection, schedule: Q01DX009 (ip), vehicle: saline 96 % of control | dose: 25.0 mg/kg/injection, schedule: Q01DX009 (ip), vehicle: saline 95 % of control

Nc1nc2ncc(CCNc3ccc(C(=O)NC(CCC(=O)O)C(=O)O)cc3)nc2c(=O)[nH]1 (stereo not drawn)
inactive: dose: 18.75 mg/kg/injection, schedule: Q01DX001 (ip), vehicle: other 96 % of control | dose: 18.75 mg/kg/injection, schedule: Q01DX Z (ip), vehicle: other 103 % of control | dose: 37.5 mg/kg/injection, schedule: Q01DX001 (ip), vehicle: other 97 % of control | dose: 37.5 mg/kg/injection, schedule: Q01DX Z (ip), vehicle: other 102 % of control | dose: 75.0 mg/kg/injection, schedule: Q01DX001 (ip), vehicle: other 104 % of control | dose: 75.0 mg/kg/injection, schedule: Q01DX Z (ip), vehicle: other 112 % of control | dose: 150.0 mg/kg/injection, schedule: Q01DX001 (ip), vehicle: other 119 % of control

C=CC(=C)CCC=C(C)C
inactive: dose: 25.0 mg/kg/injection, schedule: Q04DX003 (ip), vehicle: saline 101 % of control | dose: 50.0 mg/kg/injection, schedule: Q04DX003 (ip), vehicle: saline 101 % of control | [1] 97 % of control | [2] 87 % of control | [3] 86 % of control

OC1(C#CC2(O)CCCC2)CCCC1
inactive: dose: 50.0 mg/kg/injection, schedule: Q01DX001 (ip), vehicle: carboxymethylcellulose (CMC) 98 % of control | [4] 95 % of control | dose: 200.0 mg/kg/injection, schedule: Q01DX001 (ip), vehicle: carboxymethylcellulose (CMC) 87 % of control | dose: 400.0 mg/kg/injection, schedule: Q01DX001 (ip), vehicle: carboxymethylcellulose (CMC) 93 % of control

O=[N+]([O-])c1cc(Cl)ccc1O
inactive: [5] 91 % of control | [6] 107 % of control | [7] 96 % of control

CC(C)(c1ccccc1)C(C)(C)c1ccccc1
inactive: [8] 91 % of control | [9] 92 % of control | [10] 96 % of control | [11] 89 % of control | [12] 96 % of control

NC1CCC(c2ccccc2)(c2ccccc2)C1=O (stereo not drawn)
inactive: dose: 75.0 mg/kg/injection, schedule: Q01DX001 (ip), vehicle: saline 100 % of control | dose: 150.0 mg/kg/injection, schedule: Q01DX001 (ip), vehicle: saline 102 % of control

CCCC[As](=O)(O)CCCc1ccccc1
inactive: dose: 0.78 mg/kg/injection, schedule: Q01DX009 (ip), vehicle: saline 97 % of control | dose: 1.56 mg/kg/injection, schedule: Q01DX009 (ip), vehicle: saline 100 % of control | dose: 3.13 mg/kg/injection, schedule: Q01DX009 (ip), vehicle: saline 103 % of control

CN1C(=O)CCN(CCCN2CCC(=O)N(C)C2=S)C1=S
inactive: dose: 100.0 mg/kg/injection, schedule: Q04DX002 (ip), vehicle: saline with Tween-80 95 % of control | dose: 200.0 mg/kg/injection, schedule: Q04DX002 (ip), vehicle: saline with Tween-80 95 % of control | dose: 400.0 mg/kg/injection, schedule: Q04DX002 (ip), vehicle: saline with Tween-80 88 % of control

O=C(c1ccccc1)c1ccc(O)c([N+](=O)[O-])c1
inactive: dose: 25.0 mg/kg/injection, schedule: Q04DX002 (ip), vehicle: Klucel (hydroxypropylcellulose) (HPC) 113 % of control | dose: 50.0 mg/kg/injection, schedule: Q04DX002 (ip), vehicle: Klucel (hydroxypropylcellulose) (HPC) 100 % of control | [13] 90 % of control

O/N=C1\CCCC\C1=N/O.O/N=C1\CCCC\C1=N/O.[Pd]
inactive: dose: 100.0 mg/kg/injection, schedule: Q01DX009 (ip), vehicle: other 94 % of control | [14] 102 % of control | dose: 200.0 mg/kg/injection, schedule: Q01DX009 (ip), vehicle: other 107 % of control | [15] 98 % of control | dose: 400.0 mg/kg/injection, schedule: Q01DX009 (ip), vehicle: other 91 % of control | [16] 90 % of control

O=C(CNC(=O)c1ccc(Cl)c(Cl)c1)N/N=C/c1ccc(Cl)cc1
inactive: [17] 93 % of control | [8] 88 % of control | [18] 98 % of control

CN(C)/N=C/c1ccccc1C(=O)O
inactive: [19] 101 % of control | [5] 97 % of control | [6] 96 % of control | [7] 106 % of control

Nc1[nH]c(=O)ncc1-c1ccc(Cl)cc1
inactive: [17] 96 % of control | [8] 100 % of control

O=C(O)CC1CCC(NC(=O)NCCCl)CC1 (stereo not drawn)
inactive: dose: 100.0 mg/kg/injection, schedule: Q01DX001 (ip), vehicle: saline with Tween-80 105 % of control | dose: 200.0 mg/kg/injection, schedule: Q01DX001 (ip), vehicle: saline with Tween-80 102 % of control

CC(=O)Nc1ccc(N)c(NC(C)=O)n1
inactive: [1] 97 % of control | [2] 95 % of control | [3] 109 % of control

CN(C)C(Cc1ccccc1)(C(=O)O)c1ccccc1 (stereo not drawn)
inactive: dose: 100.0 mg/kg/injection, schedule: Q01DX001 (ip), vehicle: saline 96 % of control | dose: 200.0 mg/kg/injection, schedule: Q01DX001 (ip), vehicle: saline 91 % of control | dose: 400.0 mg/kg/injection, schedule: Q01DX001 (ip), vehicle: saline 88 % of control

CC(=O)Oc1cc(C(c2ccccc2)c2ccccc2)ccc1N(C(C)=O)S(=O)(=O)c1ccccc1
inactive: [5] 92 % of control | [6] 88 % of control | [7] 92 % of control

c1ccc(-c2csc3cccc[n+]23)cc1
inactive: [5] 102 % of control

COc1ccc(-c2c(-c3ccccc3)oc3cc(O)ccc23)cc1
inactive: dose: 100.0 mg/kg/injection, schedule: Q04DX003 (ip), vehicle: gum acacia 90 % of control | dose: 200.0 mg/kg/injection, schedule: Q04DX003 (ip), vehicle: gum acacia 90 % of control | dose: 400.0 mg/kg/injection, schedule: Q04DX003 (ip), vehicle: gum acacia 93 % of control

O=[N+]([O-])c1cc2c(cc1Br)-c1ccccc1C2
inactive: dose: 100.0 mg/kg/injection, schedule: Q01DX005 (ip), vehicle: Klucel (hydroxypropylcellulose) (HPC) 98 % of control | [13] 93 % of control | dose: 200.0 mg/kg/injection, schedule: Q01DX005 (ip), vehicle: Klucel (hydroxypropylcellulose) (HPC) 94 % of control | dose: 200.0 mg/kg/injection, schedule: Q04DX002 (ip), vehicle: Klucel (hydroxypropylcellulose) (HPC) 111 % of control | dose: 400.0 mg/kg/injection, schedule: Q01DX005 (ip), vehicle: Klucel (hydroxypropylcellulose) (HPC) 122 % of control | dose: 400.0 mg/kg/injection, schedule: Q04DX002 (ip), vehicle: Klucel (hydroxypropylcellulose) (HPC) 117 % of control

CC(=O)N(C)c1ccc(NC(=O)c2c(Br)c(Br)c(Br)c(Br)c2C(=O)O)cc1
inactive: [8] 98 % of control | [18] 89 % of control | [11] 105 % of control

CNC(=O)N(CCC#N)C1CCCCC1
inactive: [14] 104 % of control | [15] 106 % of control | [16] 96 % of control

O=[N+]([O-])c1ccc(/C=N/c2nn[nH]n2)cc1 (tested in a mixture with another compound)
inactive: [1] 98 % of control | [2] 100 % of control | [3] 96 % of control

CCCCCCCCCCC[CH2][Hg][CH2]CCCCCCCCCCC
inactive: [9] 96 % of control | [10] 89 % of control | [12] 87 % of control

CC1(CCCCCBr)OCCO1
inactive: [8] 97 % of control | [18] 100 % of control | [11] 94 % of control

CN1CCc2cc3c(cc2C(=O)Cc2ccc4c(c2C1)OCO4)OCO3
inactive: dose: 25.0 mg/kg/injection, schedule: Q04DX003 (ip), vehicle: saline with Tween-80 103 % of control | [19] 97 % of control | [4] 100 % of control | [5] 102 % of control
